For 17 compounds, IC50 results are on record in patent publication US20250145665A1, “MACROCYCLIC PEPTIDES USEFUL AS MODULATORS OF TNF ALPHA” (Bristol-Myers Squibb Company, priority 2023, published 2025).

The term IC50 denotes the concentration that gives 50% inhibition.

Positions of bridges follow the written chain, without caps; N, C: chain ends. Non-standard residues stand in square brackets, D forms with d. Residues, ends and D or L forms follow the SMILES beside them. Bip(4'-NHAc) = CC(=O)Nc1ccc(-c2ccc(C[C@H](N)C(=O)O)cc2)cc1; Ala(morpholin-4-yl) = N[C@@H](CN1CCOCC1)C(=O)O; Phe(3-CONH2) = NC(=O)c1cccc(C[C@H](N)C(=O)O)c1; Phe(4-CH2NH2) = NCc1ccc(C[C@H](N)C(=O)O)cc1; Bip = N[C@@H](Cc1ccc(-c2ccccc2)cc1)C(=O)O; Pro(cis-4-F) = O=C(O)[C@@H]1C[C@H](F)CN1; Hyp = O=C(O)[C@@H]1C[C@@H](O)CN1; 2Pal = N[C@@H](Cc1ccccn1)C(=O)O; Tic = O=C(O)[C@@H]1Cc2ccccc2CN1; Hpra = C#CCC[C@H](N)C(=O)O; Pip = O=C(O)[C@@H]1CCCCN1; Aze = O=C(O)[C@@H]1CCN1; Sar = CNCC(=O)O

TNFα, sequence (P01375 77-233 limits assumed): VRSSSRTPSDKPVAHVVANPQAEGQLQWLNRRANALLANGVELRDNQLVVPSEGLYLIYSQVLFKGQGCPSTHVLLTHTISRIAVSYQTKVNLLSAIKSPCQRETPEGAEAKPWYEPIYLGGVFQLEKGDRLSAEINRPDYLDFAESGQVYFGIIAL

The test has as its target TNFα (Homo sapiens, UniProt P01375). The experiment in a line: TNF-Induced HEK-Blue Assay. It is filed as cell-based. The conditions noted are these: HEK-Blue-CD40L cells, NF-kB-driven secreted alkaline phosphatase reporter; TNFα 0.5 ng/ml; 18 h; read-out: TNF induced HEK-Blue assay IC50 value.
Turning to `C#CCC[C@@H]1NC(=O)[C@H](CCCNC(=N)N)NC(=O)[C@H](CC(=O)O)NC(=O)[C@@H]2CCCN2C(=O)CN(C)C(=O)[C@H](Cc2ccc(-c3ccccc3)cc2)NC(=O)[C@H](Cc2ccc(-c3ccccc3)cc2)NC(=O)[C@H](Cc2ccccc2)NC(=O)CSC[C@@H](C(=O)NCC(N)=O)NC(=O)[C@H](CC(C)C)NC(=O)[C@H](CCCNC(=N)N)NC(=O)[C@H](C(C)C)NC(=O)[C@@H]2CCCN2C1=O` [Example 33] ({CH2CO}-F[Bip][Bip][Sar]PDR[Hpra]PVRLCG-NH2; thioether N-13), the IC50 lay in the range of 200 to 2000 nM.

For the compound `CC(C)C[C@@H]1NC(=O)[C@H](Cc2ccccn2)NC(=O)[C@H](C(C)C)NC(=O)[C@@H]2CCCN2C(=O)[C@H](C(C)C)NC(=O)[C@H](CCCNC(=N)N)NC(=O)[C@H](CC(=O)O)NC(=O)[C@@H]2CCCN2C(=O)CN(C)C(=O)[C@H](Cc2ccc(-c3ccccc3)cc2)NC(=O)[C@H](Cc2ccc(-c3ccccc3)cc2)NC(=O)[C@H](Cc2ccccc2)NC(=O)CSC[C@@H](C(=O)NCC(N)=O)NC1=O` [Example 34] ({CH2CO}-F[Bip][Bip][Sar]PDRVPV[2Pal]LCG-NH2; thioether N-13), the IC50 was in the range of 200 to 2000 nM.

Consider `CC(C)C[C@@H]1NC(=O)[C@H](CCCNC(=N)N)NC(=O)[C@H](C(C)C)NC(=O)[C@@H]2CCCN2C(=O)[C@H](C(C)C)NC(=O)[C@H](CCCNC(=N)N)NC(=O)[C@H](CC(=O)O)NC(=O)[C@@H]2CCCN2C(=O)CN(C)C(=O)[C@H](Cc2ccc(-c3ccccc3)cc2)NC(=O)[C@H](Cc2ccc(-c3ccccc3)cc2)NC(=O)[C@H](Cc2cccc(C(N)=O)c2)NC(=O)CSC[C@@H](C(=O)NCC(N)=O)NC1=O` [Example 35] ({CH2CO}-[Phe(3-CONH2)][Bip][Bip][Sar]PDRVPVRLCG-NH2; thioether N-13), for which the IC50 lay within 200 to 2000 nM.

As to `CC(C)C[C@@H]1NC(=O)[C@H](Cc2ccc(CN)cc2)NC(=O)[C@H](C(C)C)NC(=O)[C@@H]2CCCN2C(=O)[C@H](C(C)C)NC(=O)[C@H](CCCNC(=N)N)NC(=O)[C@H](CC(=O)O)NC(=O)[C@@H]2CCCN2C(=O)CN(C)C(=O)[C@H](Cc2ccc(-c3ccccc3)cc2)NC(=O)[C@H](Cc2ccc(-c3ccccc3)cc2)NC(=O)[C@H](Cc2ccccc2)NC(=O)CSC[C@@H](C(=O)NCC(N)=O)NC1=O` [Example 36] ({CH2CO}-F[Bip][Bip][Sar]PDRVPV[Phe(4-CH2NH2)]LCG-NH2; thioether N-13), the IC50 lay in the range of 200 to 2000 nM.

Take `CC(=O)Nc1ccc(-c2ccc(C[C@@H]3NC(=O)[C@H](Cc4ccc(-c5ccccc5)cc4)NC(=O)[C@H](Cc4ccccc4)NC(=O)CSC[C@@H](C(=O)NCC(N)=O)NC(=O)[C@H](CC(C)C)NC(=O)[C@H](CCCNC(=N)N)NC(=O)[C@H](C(C)C)NC(=O)[C@@H]4CCCN4C(=O)[C@H](C(C)C)NC(=O)[C@H](CCCNC(=N)N)NC(=O)[C@H](CC(=O)O)NC(=O)[C@@H]4CCCN4C(=O)CN(C)C3=O)cc2)cc1` [Example 37] ({CH2CO}-F[Bip][Bip(4'-NHAc)][Sar]PDRVPVRLCG-NH2; thioether N-13): the IC50 is 200 to 2000 nM.

For the compound `CC(=O)Nc1ccc(-c2ccc(C[C@@H]3NC(=O)[C@H](Cc4ccccc4)NC(=O)CSC[C@@H](C(=O)NCC(N)=O)NC(=O)[C@H](CC(C)C)NC(=O)[C@H](CCCNC(=N)N)NC(=O)[C@H](C(C)C)NC(=O)[C@@H]4CCCN4C(=O)[C@H](C(C)C)NC(=O)[C@H](CCCNC(=N)N)NC(=O)[C@H](CC(=O)O)NC(=O)[C@@H]4CCCN4C(=O)CN(C)C(=O)[C@H](Cc4ccc(-c5ccccc5)cc4)NC3=O)cc2)cc1` [Example 38] ({CH2CO}-F[Bip(4'-NHAc)][Bip][Sar]PDRVPVRLCG-NH2; thioether N-13), the IC50 lay in the range of 200 to 2000 nM.

As for `CC(C)C[C@@H]1NC(=O)[C@H](CCCNC(=N)N)NC(=O)[C@H](C(C)C)NC(=O)[C@@H]2C[C@@H](O)CN2C(=O)[C@H](C(C)C)NC(=O)[C@H](CCCNC(=N)N)NC(=O)[C@H](CC(=O)O)NC(=O)[C@@H]2CCCN2C(=O)CN(C)C(=O)[C@H](Cc2ccc(-c3ccccc3)cc2)NC(=O)[C@H](Cc2ccc(-c3ccccc3)cc2)NC(=O)[C@H](Cc2ccccc2)NC(=O)CSC[C@@H](C(=O)NCC(N)=O)NC1=O` [Example 39] ({CH2CO}-F[Bip][Bip][Sar]PDRV[Hyp]VRLCG-NH2; thioether N-13), the IC50 was in the range of 200 to 2000 nM.

Take `CC(C)C[C@@H]1NC(=O)[C@H](CCCNC(=N)N)NC(=O)[C@H](C(C)C)NC(=O)[C@@H]2Cc3ccccc3CN2C(=O)[C@H](C(C)C)NC(=O)[C@H](CCCNC(=N)N)NC(=O)[C@H](CC(=O)O)NC(=O)[C@@H]2CCCN2C(=O)CN(C)C(=O)[C@H](Cc2ccc(-c3ccccc3)cc2)NC(=O)[C@H](Cc2ccc(-c3ccccc3)cc2)NC(=O)[C@H](Cc2ccccc2)NC(=O)CSC[C@@H](C(=O)NCC(N)=O)NC1=O` [Example 40] ({CH2CO}-F[Bip][Bip][Sar]PDRV[Tic]VRLCG-NH2; thioether N-13): the concentration for half-maximal inhibition (IC50) lay within 50 to 200 nM.

Turning to `CC(C)C[C@@H]1NC(=O)[C@H](CCCNC(=N)N)NC(=O)[C@H](C(C)C)NC(=O)[C@@H]2CCCCN2C(=O)[C@H](C(C)C)NC(=O)[C@H](CCCNC(=N)N)NC(=O)[C@H](CC(=O)O)NC(=O)[C@@H]2CCCN2C(=O)CN(C)C(=O)[C@H](Cc2ccc(-c3ccccc3)cc2)NC(=O)[C@H](Cc2ccc(-c3ccccc3)cc2)NC(=O)[C@H](Cc2ccccc2)NC(=O)CSC[C@@H](C(=O)NCC(N)=O)NC1=O` [Example 41] ({CH2CO}-F[Bip][Bip][Sar]PDRV[Pip]VRLCG-NH2; thioether N-13), the IC50 lay in the range of 200 to 2000 nM.

In the case of `CC(C)C[C@@H]1NC(=O)[C@H](CCCNC(=N)N)NC(=O)[C@H](C(C)C)NC(=O)[C@@H]2CCN2C(=O)[C@H](C(C)C)NC(=O)[C@H](CCCNC(=N)N)NC(=O)[C@H](CC(=O)O)NC(=O)[C@@H]2CCCN2C(=O)CN(C)C(=O)[C@H](Cc2ccc(-c3ccccc3)cc2)NC(=O)[C@H](Cc2ccc(-c3ccccc3)cc2)NC(=O)[C@H](Cc2ccccc2)NC(=O)CSC[C@@H](C(=O)NCC(N)=O)NC1=O` [Example 42] ({CH2CO}-F[Bip][Bip][Sar]PDRV[Aze]VRLCG-NH2; thioether N-13), the IC50 was in the range of 200 to 2000 nM.

For `CC(C)C[C@@H]1NC(=O)[C@H](CCCNC(=N)N)NC(=O)[C@H](C(C)C)NC(=O)[C@@H]2C[C@H](F)CN2C(=O)[C@H](C(C)C)NC(=O)[C@H](CCCNC(=N)N)NC(=O)[C@H](CC(=O)O)NC(=O)[C@@H]2CCCN2C(=O)CN(C)C(=O)[C@H](Cc2ccc(-c3ccccc3)cc2)NC(=O)[C@H](Cc2ccc(-c3ccccc3)cc2)NC(=O)[C@H](Cc2ccccc2)NC(=O)CSC[C@@H](C(=O)NCC(N)=O)NC1=O` [Example 43] ({CH2CO}-F[Bip][Bip][Sar]PDRV[Pro(cis-4-F)]VRLCG-NH2; thioether N-13), the IC50 lay in the range of 200 to 2000 nM.

On to `CC(C)C[C@@H]1NC(=O)[C@H](CCCNC(=N)N)NC(=O)[C@H](C(C)C)NC(=O)[C@@H]2CCCN2C(=O)[C@H](C(C)C)NC(=O)[C@H](CCCNC(=N)N)NC(=O)[C@H](CC(=O)O)NC(=O)[C@@H]2C[C@@H](O)CN2C(=O)CN(C)C(=O)[C@H](Cc2ccc(-c3ccccc3)cc2)NC(=O)[C@H](Cc2ccc(-c3ccccc3)cc2)NC(=O)[C@H](Cc2ccccc2)NC(=O)CSC[C@@H](C(=O)NCC(N)=O)NC1=O` [Example 44] ({CH2CO}-F[Bip][Bip][Sar][Hyp]DRVPVRLCG-NH2; thioether N-13), for which the IC50 was 200 to 2000 nM.

As for `CC(C)C[C@@H]1NC(=O)[C@H](CCCNC(=N)N)NC(=O)[C@H](C(C)C)NC(=O)[C@@H]2CCCN2C(=O)[C@H](C(C)C)NC(=O)[C@H](CCCNC(=N)N)NC(=O)[C@H](CC(=O)O)NC(=O)[C@@H]2Cc3ccccc3CN2C(=O)CN(C)C(=O)[C@H](Cc2ccc(-c3ccccc3)cc2)NC(=O)[C@H](Cc2ccc(-c3ccccc3)cc2)NC(=O)[C@H](Cc2ccccc2)NC(=O)CSC[C@@H](C(=O)NCC(N)=O)NC1=O` [Example 45] ({CH2CO}-F[Bip][Bip][Sar][Tic]DRVPVRLCG-NH2; thioether N-13), the IC50 was in the range of 200 to 2000 nM.

`CC(C)C[C@@H]1NC(=O)[C@H](CCCNC(=N)N)NC(=O)[C@H](C(C)C)NC(=O)[C@@H]2CCCN2C(=O)[C@H](C(C)C)NC(=O)[C@H](CCCNC(=N)N)NC(=O)[C@H](CC(=O)O)NC(=O)[C@@H]2CCN2C(=O)CN(C)C(=O)[C@H](Cc2ccc(-c3ccccc3)cc2)NC(=O)[C@H](Cc2ccc(-c3ccccc3)cc2)NC(=O)[C@H](Cc2ccccc2)NC(=O)CSC[C@@H](C(=O)NCC(N)=O)NC1=O` [Example 46] ({CH2CO}-F[Bip][Bip][Sar][Aze]DRVPVRLCG-NH2; thioether N-13): the IC50 was 200 to 2000 nM.

Turning to `CC(C)C[C@@H]1NC(=O)[C@H](CCCNC(=N)N)NC(=O)[C@H](C(C)C)NC(=O)[C@@H]2CCCN2C(=O)[C@H](C(C)C)NC(=O)[C@H](CCCNC(=N)N)NC(=O)[C@H](CC(=O)O)NC(=O)[C@H](Cc2ccc(O)cc2)NC(=O)CN(C)C(=O)[C@H](Cc2ccc(-c3ccccc3)cc2)NC(=O)[C@H](Cc2ccc(-c3ccccc3)cc2)NC(=O)[C@H](CN2CCOCC2)NC(=O)CSC[C@@H](C(=O)NCC(N)=O)NC1=O` [Example 47] ({CH2CO}-[Ala(morpholin-4-yl)][Bip][Bip][Sar]YDRVPVRLCG-NH2; thioether N-13), the IC50 is 50 to 200 nM.

With `CC(C)C[C@@H]1NC(=O)[C@H](Cc2ccc(O)cc2)NC(=O)[C@H](C(C)C)NC(=O)[C@@H]2CCCN2C(=O)[C@H](C(C)C)NC(=O)[C@H](CCCNC(=N)N)NC(=O)[C@H](CC(=O)O)NC(=O)[C@H](Cc2ccc(O)cc2)NC(=O)CN(C)C(=O)[C@H](Cc2ccc(-c3ccccc3)cc2)NC(=O)[C@H](Cc2ccc(-c3ccccc3)cc2)NC(=O)[C@H](CN2CCOCC2)NC(=O)CSC[C@@H](C(=O)NCC(N)=O)NC1=O` [Example 48] ({CH2CO}-[Ala(morpholin-4-yl)][Bip][Bip][Sar]YDRVPVYLCG-NH2; thioether N-13), the IC50 was in the range of 200 to 2000 nM.

Regarding `CC(C)C[C@@H]1NC(=O)[C@H](Cc2ccc(O)cc2)NC(=O)[C@H](C(C)C)NC(=O)[C@@H]2CCCN2C(=O)[C@H](C(C)C)NC(=O)[C@H](CCCNC(=N)N)NC(=O)[C@H](CC(=O)O)NC(=O)[C@@H]2CCCN2C(=O)CN(C)C(=O)[C@H](Cc2ccc(-c3ccccc3)cc2)NC(=O)[C@H](Cc2ccc(-c3ccccc3)cc2)NC(=O)[C@H](CN2CCOCC2)NC(=O)CSC[C@@H](C(=O)NCC(N)=O)NC1=O` [Example 49] ({CH2CO}-[Ala(morpholin-4-yl)][Bip][Bip][Sar]PDRVPVYLCG-NH2; thioether N-13), the IC50 lay in the range of 50 to 200 nM.
